Laboratory results: US9040516B2, “Uracil derivative and use thereof for medical purposes” (SUMITOMO DAINIPPON PHARMA CO., LTD., priority 2011, dated 2015)

target: T1, human neutrophil elastase (Homo sapiens, UniProt P08246); assay: Inhibitory action 2 against human neutrophil elastase (Test Example 2; fluorogenic substrate MeOSuc-AAPV-AMC, buffer with 400 mM NaCl, 0.2 mg/ml BSA); type: biochemical; settings: 37° C., read-out: IC50 value (compound concentration required for 50% inhibition of human neutrophil elastase)
T1 construct: purchased Elastin Products Company
T1 sequence (P08246 30-267): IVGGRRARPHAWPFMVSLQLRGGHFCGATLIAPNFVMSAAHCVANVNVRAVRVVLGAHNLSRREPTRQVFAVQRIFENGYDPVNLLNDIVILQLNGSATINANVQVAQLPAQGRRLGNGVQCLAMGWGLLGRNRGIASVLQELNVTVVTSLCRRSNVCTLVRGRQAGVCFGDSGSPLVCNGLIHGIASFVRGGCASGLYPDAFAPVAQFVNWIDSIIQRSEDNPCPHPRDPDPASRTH
Description: Assay buffer (0.4 unit/ml HNE (human neutrophil elastase, available from Elastin Products Company), 200 mM HEPES [N-(2-hydroxyethyl)piperazine-N′-(2-ethanesulfonic acid)], pH 7.5, 400 mM NaCl, 0.2 mg/ml BSA (bovine serum albumin)) 100 μl, water for injection 20 μl and 1% DMSO (dimethyl sulfoxide) solution of the present compound 20 μl were mixed in a 96 well plate and the mixed solutions were pre-incubated at 37° C. for five minutes. After pre-incubation, MeOSuc-AAPV-AMC (methoxysuccinyl-alanyl-alanyl-prolyl-valyl-aminomethyl cumaride (available from Sigma Aldrich Corp.) solution as fluorogenic substrate (which was dissolved in 10% DMSO solution so as to adjust to 0.5 mM) 40 μl was added to the above-prepared mixed solution so as to initiate the reaction, and the mixture was incubated at 37° C. for five minutes. The fluorescence intensity of AMC was measured at an excitation wavelength of 380 nm and a fluorescence wavelength of 460 nm and the inhibition ratio was determined.

IC50 | Structure (SMILES)
0.0035 µM | Cc1c(-c2ccnn2-c2ccc(C#N)cc2)c(=O)n(C(C)C)c(=O)n1-c1cccc(C(F)(F)F)c1 [Example 42, 4-(5-(3-isopropyl-6-methyl-2,4-dioxo-1-(3-(trifluoromethyl)phenyl)-1,2,3,4-tetrahydropyrimidin-5-yl)-1H-pyrazol-1-yl)benzonitrile]
0.0242 µM | Cc1c(-c2c(N3CCOCC3)cnn2-c2ccc(C#N)cc2)c(=O)n(C)c(=O)n1-c1cccc(C(F)(F)F)c1 [Example 315, 4-(5-(3,6-Dimethyl-2,4-dioxo-1-(3-trifluoromethylphenyl)-1,2,3,4-tetrahydropyrimidin-5-yl)-4-morpholino-1H-pyrazol-1-yl)benzonitrile]
0.0049 µM | Cc1c(-c2ccnn2-c2ccc(C#N)cc2)c(=O)n([C@H](C)CO)c(=O)n1-c1cccc(C(F)(F)F)c1 [Example 55, (R)-4-(5-(3-(1-hydroxypropan-2-yl)-6-methyl-2,4-dioxo-1-(3-(trifluoromethyl)phenyl)-1,2,3,4-tetrahydropyrimidin-5-yl)-1H-pyrazol-1-yl)benzonitrile]
0.014 µM | Cc1c(-c2c(C#N)cnn2-c2ccc(C#N)cc2)c(=O)n([C@@H]2CCN(C)C2)c(=O)n1-c1cccc(C(F)(F)F)c1 [Example 367]
0.0088 µM | Cc1c(-c2c(S(N)(=O)=O)cnn2-c2ccc(C#N)cc2)c(=O)n(C)c(=O)n1-c1cccc(C(F)(F)F)c1 [Example 211, (+)-1-(4-cyanophenyl)-5-(3,6-dimethyl-2,4-dioxo-1-(3-trifluoromethylphenyl)-1,2,3,4-tetrahydropyrimidin-5-yl)-1H-pyrazole-4-sulfonamide 0.5 IPA solvates]
0.0073 µM | CCCN1CCC(n2c(=O)c(-c3ccnn3-c3ccc(C#N)cc3)c(C)n(-c3cccc(C(F)(F)F)c3)c2=O)C1 (stereo not shown) [Example 343]
0.0128 µM | Cc1c(-c2ccnn2-c2ccc(C#N)cc2)c(=O)n(C(C)C(=O)N2CC(O)C2)c(=O)n1-c1cccc(C(F)(F)F)c1 (stereo not shown) [Example 383]
0.0077 µM | Cc1c(-c2c(S(=O)(=O)N3CCOC3=O)cnn2-c2ccc(C#N)cc2)c(=O)n(C)c(=O)n1-c1cccc(C(F)(F)F)c1 [Example 239]
0.0093 µM | Cc1c(-c2c(S(N)(=O)=O)cnn2-c2ccc(C#N)cc2)c(=O)n(C(C)C)c(=O)n1-c1cccc(C(F)(F)F)c1 [Example 206]
0.0295 µM | Cc1c(-c2c(F)cnn2-c2ccc(C#N)cc2)c(=O)n(C)c(=O)n1-c1cccc(C(F)(F)F)c1 [Example 358, 4-(5-(3,6-dimethyl-2,4-dioxo-1-(3-trifluoromethylphenyl)-1,2,3,4-tetrahydropyrimidin-5-yl)-4-fluoro-1H-pyrazol-1-yl)benzonitrile]
0.0045 µM | CC(=O)N1CCC(n2c(=O)c(-c3ccnn3-c3ccc(C#N)cc3)c(C)n(-c3cccc(C(F)(F)F)c3)c2=O)CC1 [Example 337]
0.0167 µM | Cc1c(-c2c(Cl)cnn2-c2ccc(C#N)cc2)c(=O)n(C)c(=O)n1-c1cccc(C(F)(F)F)c1 [Example 360, 4-(4-chloro-5-(3,6-dimethyl-2,4-dioxo-1-(3-trifluoromethylphenyl)-1,2,3,4-tetrahydropyrimidin-5-yl)-1H-pyrazol-1-yl)benzonitrile]
0.0194 µM | Cc1c(-c2c(C(=O)OCCCCN(C)C)cnn2-c2ccc(C#N)cc2)c(=O)n(C)c(=O)n1-c1cccc(C(F)(F)F)c1 [Example 187, 4-(dimethylamino)butyl 1-(4-cyanophenyl)-5-(3,6-dimethyl-2,4-dioxo-1-(3-trifluoromethylphenyl)-1,2,3,4-tetrahydropyrimidin-5-yl)-1H-pyrazole-4-carboxylate]
0.022 µM | Cc1c(-c2c(CN3CC(F)(F)C3)cnn2-c2ccc(C#N)cc2)c(=O)n(C)c(=O)n1-c1cccc(C(F)(F)F)c1 [Example 305]
0.0129 µM | Cc1c(-c2ccnn2-c2ccc(C#N)cc2)c(=O)n(C(C)CCN2CCOCC2)c(=O)n1-c1cccc(C(F)(F)F)c1 (stereo not shown) [Example 399]
0.0087 µM | Cc1c(-c2c(C(=O)NC3CC3)cnn2-c2ccc(C#N)cc2)c(=O)n(C)c(=O)n1-c1cccc(C(F)(F)F)c1 [Example 179]
0.0063 µM | Cc1c(-c2c(Cl)cnn2-c2ccc(C#N)cc2)c(=O)n(C(C)C(N)=O)c(=O)n1-c1cccc(C(F)(F)F)c1 (stereo not shown) [Example 361]
0.0119 µM | Cc1c(-c2c(S(=O)(=O)NC(=O)c3ccccc3)cnn2-c2ccc(C#N)cc2)c(=O)n(C)c(=O)n1-c1cccc(C(F)(F)F)c1 [Example 249]
0.0101 µM | Cc1c(-c2ccnn2-c2ccc(C#N)cc2)c(=O)n(C(C)CN2CCOCC2)c(=O)n1-c1cccc(C(F)(F)F)c1 (stereo not shown) [Example 386]

IC50 | Structure (SMILES)
0.0093 µM | Cc1c(-c2c(S(N)(=O)=O)cnn2-c2ccc(C#N)cc2)c(=O)n(C)c(=O)n1-c1cccc(C(F)(F)F)c1 (single isomer, unassigned) [Example 209, (+)-1-(4-cyanophenyl)-5-(3,6-dimethyl-2,4-dioxo-1-(3-trifluoromethylphenyl)-1,2,3,4-tetrahydropyrimidin-5-yl)-1H-pyrazole-4-sulfonamide]
0.0126 µM | CCn1c(=O)c(-c2ccnn2-c2ccc(C#N)cc2)c(C)n(-c2cccc(C(F)(F)F)c2)c1=O [Example 41, 4-(5-(3-ethyl-6-methyl-2,4-dioxo-1-(3-(trifluoromethyl)phenyl)-1,2,3,4-tetrahydropyrimidin-5-yl)-1H-pyrazol-1-yl)benzonitrile]
0.0231 µM | Cc1c(-c2c(S(=O)(=O)O)cnn2-c2ccc(C#N)cc2)c(=O)n(C)c(=O)n1-c1cccc(C(F)(F)F)c1 [Example 191, 1-(4-cyanophenyl)-5-(3,6-dimethyl-2,4-dioxo-1-(3-trifluoromethylphenyl)-1,2,3,4-tetrahydropyrimidin-5-yl)-1H-pyrazole-4-sulfonic acid]
0.0149 µM | Cc1c(-c2c(N3CCN(C(C)C)CC3)cnn2-c2ccc(C#N)cc2)c(=O)n(C)c(=O)n1-c1cccc(C(F)(F)F)c1 [Example 318]
0.0096 µM | Cc1c(-c2ccnn2-c2ccc(C#N)cc2)c(=O)n([C@H](C)CS(N)(=O)=O)c(=O)n1-c1cccc(C(F)(F)F)c1 [Example 324, (R)-2-(5-(1-(4-Cyanophenyl)-1H-pyrazol-5-yl)-4-methyl-2,6-dioxo-3-(3-trifluoromethylphenyl)-2,3-dihydropyrimidin-1(6H)-yl)propane-1-sulfonamide]
0.012 µM | Cc1c(-c2c(S(C)(=O)=O)cnn2-c2ccc(C#N)cc2)c(=O)n(C(C)C)c(=O)n1-c1cccc(C(F)(F)F)c1 (racemic) [Example 276, (±)-4-(5-(3-Isopropyl-6-methyl-2,4-dioxo-1-(3-trifluoromethylphenyl)-1,2,3,4-tetrahydropyrimidin-5-yl-4-(methylsulfonyl)-1H-pyrazol-1-yl)benzonitrile]
0.0206 µM | COC(=O)NS(=O)(=O)c1cnn(-c2ccc(C#N)cc2)c1-c1c(C)n(-c2cccc(C(F)(F)F)c2)c(=O)n(C)c1=O [Example 252]
0.0137 µM | CCc1c(-c2ccnn2-c2ccc(C#N)cc2)c(=O)n(C)c(=O)n1-c1cccc(C(F)(F)F)c1 [Example 50, 4-(5-(6-ethyl-3-methyl-2,4-dioxo-1-(3-(trifluoromethyl)phenyl)-1,2,3,4-tetrahydropyrimidin-5-yl)-1H-pyrazol-1-yl)benzonitrile]
0.0153 µM | CC(=O)N1CCC(n2c(=O)c(-c3c(F)cnn3-c3ccc(C#N)cc3)c(C)n(-c3cccc(C(F)(F)F)c3)c2=O)CC1 [Example 359]
0.0297 µM | CCn1c(=O)c(-c2c(C(C)(C)N)cnn2-c2ccc(C#N)cc2)c(C)n(-c2cccc(C(F)(F)F)c2)c1=O [Example 297, 4-(4-(2-aminopropane-2-yl)-5-(3-ethyl-6-methyl-2,4-dioxo-1-(3-trifluoromethylphenyl)-1,2,3,4-tetrahydropyrimidin-5-yl)-1H-pyrazol-1-yl)benzonitrile]
0.0187 µM | Cc1c(-c2ccnn2-c2ccc(C#N)cc2)c(=O)n(C(C)C(=O)N(C)C)c(=O)n1-c1cccc(C(F)(F)F)c1 (stereo not shown) [Example 379]
0.0198 µM | Cc1c(-c2c(S(=O)(=O)N3CCOCC3)cnn2-c2ccc(C#N)cc2)c(=O)n(C)c(=O)n1-c1cccc(C(F)(F)F)c1 [Example 221]
0.0186 µM | COC(=O)c1cnn(-c2ccc(C#N)cc2)c1-c1c(C)n(-c2cccc(C(F)(F)F)c2)c(=O)n(C)c1=O [Example 188]
0.015 µM | Cc1c(-c2c(S(N)(=O)=O)cnn2-c2ccc(C#N)cc2)c(=O)n(C)c(=O)n1-c1cccc(C(F)(F)F)c1 [Example 205, 1-(4-cyanophenyl)-5-(3,6-dimethyl-2,4-dioxo-1-(3-trifluoromethylphenyl)-1,2,3,4-tetrahydropyrimidin-5-yl)-1H-pyrazole-4-sulfonamide]
0.0077 µM | CCNC(=O)NS(=O)(=O)c1cnn(-c2ccc(C#N)cc2)c1-c1c(C)n(-c2cccc(C(F)(F)F)c2)c(=O)n(C)c1=O [Example 257]
0.0123 µM | Cc1c(-c2ccnn2-c2ccc(C#N)cc2)c(=O)n([C@H](C)CS(C)(=O)=O)c(=O)n1-c1cccc(C(F)(F)F)c1 [Example 375]
0.353 µM | N#Cc1ccc(-n2nccc2-c2cn(-c3cccc(C(F)(F)F)c3)c(=O)n([C@@H]3CNC(=O)C3)c2=O)cc1 [Example 90]
0.0116 µM | Cc1c(-c2c(S(C)(=O)=O)cnn2-c2ccc(C#N)cc2)c(=O)n(C)c(=O)n1-c1cccc(C(F)(F)F)c1 (single isomer, unassigned) [Example 267]
